From article PMC12120022, “Discovery and chemical optimisation of a potent, Bi-cyclic antimicrobial inhibitor of Escherichia coli PBP3” (Communications Biology, 2025)
Where a SMILES comes first, the peptide text is derived from it.

Molecular target: T1, EcPBP3 (Escherichia coli, UniProt P0AD68)
T1 construct: For assays, selections and SPR a construct with residues 60–588 which has the N-terminal domain, but not the transmembrane helix, was used; made in house
Test: Fluorescence polarisation competition assay with fluorescent Bicycle tracer (tracer 1 / BCY12820)
Type: binding
Details: protein 9.4 nM sets sensitivity limit, top concentration 5 µM, read-out: Ki (nM) by fluorescence polarisation with tracer 1 (BCY12820 as tracer), Geometric mean (Lower 95% CI; Upper 95% CI, n=number of values)
Protocol: Competition fluorescence polarisation assays were run by observing the fluorescence polarisation of a fluorescent “tracer” Bicycle molecule which competes against an unlabelled peptide for binding to the EcPBP3 target. 10 µL of protein (9.4 nM) was mixed with either 5 µL of peptide or 5 µL of buffer and then the assay was initiated by the addition of 10 µL of tracer (1 nM) (final volume 25 µL), in a black 384 low bind, low volume plate (Corning). The buffer was 10 mM HEPES (Sigma), 2% (v/v) glycerol (Sigma), 300 mM NaCl (Sigma), adjusted to pH 8. The plate was incubated for 1 h at 25 °C and then read in a PHERAstar FS (BMG) using with an “FP 485 520 520” optic module (excitation 485 nm, emission 520 nm). The gain was determined immediately prior to the read on a tracer-only well.
Dotmatics (Dotmatics) workflows performing the above calculations were used to process the data. Values quoted are the geometric means of at least 2 repeats.

T1 sequence (P0AD68 60-588): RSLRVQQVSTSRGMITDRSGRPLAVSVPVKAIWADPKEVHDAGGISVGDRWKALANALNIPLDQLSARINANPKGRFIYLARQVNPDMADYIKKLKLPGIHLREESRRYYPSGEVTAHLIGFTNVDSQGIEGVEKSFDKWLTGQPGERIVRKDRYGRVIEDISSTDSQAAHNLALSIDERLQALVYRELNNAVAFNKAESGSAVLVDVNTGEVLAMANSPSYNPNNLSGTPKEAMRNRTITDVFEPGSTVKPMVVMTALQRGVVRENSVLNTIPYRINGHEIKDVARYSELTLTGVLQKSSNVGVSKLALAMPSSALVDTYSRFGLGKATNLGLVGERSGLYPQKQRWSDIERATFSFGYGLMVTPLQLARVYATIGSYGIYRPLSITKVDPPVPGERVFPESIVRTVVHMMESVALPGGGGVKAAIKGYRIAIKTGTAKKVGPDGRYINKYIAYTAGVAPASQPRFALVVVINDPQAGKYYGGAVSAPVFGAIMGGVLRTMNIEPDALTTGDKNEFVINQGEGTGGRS

SMILES	Ki [nM]
CC(C)[C@@H]1NC(=O)[C@H](Cc2c[nH]c3ccccc23)NC(=O)CNC(=O)[C@@H]2CSCCC(=O)N3CN(CN(C3)C(=O)CCSC[C@H](NC(=O)[C@H](C)N)C(=O)N[C@@H](CO)C(=O)N[C@@H](Cc3ccccc3)C(=O)N3CCC[C@H]3C(=O)N[C@@H](CCCCNC(=N)N)C(=O)N2)C(=O)CCSC[C@@H](C(=O)N[C@@H](C)C(N)=O)NC(=O)CNC(=O)[C@H](CCC(=O)O)NC1=O [Peptide 41] (HELM PEPTIDE1{A.C.S.F.P.[N=C(N)NCCCC[C@H](N[*:1])C(=O)[*:2]].C.G.W.V.E.G.C.A.[am]}|CHEM1{[O=C(CC[*:1])N1CN(C(=O)CC[*:2])CN(C(=O)CC[*:3])C1]}$PEPTIDE1,CHEM1,2:R3-1:R1|PEPTIDE1,CHEM1,7:R3-1:R2|PEPTIDE1,CHEM1,13:R3-1:R3$$$V2.0)	> 5000
CC(C)[C@@H]1NC(=O)[C@H](Cc2ccc(O)cc2)NC(=O)[C@@H]2CCCN2C(=O)[C@@H]2CSCCC(=O)N3CN(CN(C3)C(=O)CCSC[C@H](NC(=O)[C@H](C)N)C(=O)N[C@@H](CO)C(=O)N[C@@H](Cc3ccccc3)C(=O)N3CCC[C@H]3C(=O)N[C@@H](CCCCNC(=N)N)C(=O)N2)C(=O)CCSC[C@@H](C(=O)N[C@@H](C)C(N)=O)NC(=O)CNC(=O)[C@H](CCC(=O)O)NC1=O [Peptide 42] (HELM PEPTIDE1{A.C.S.F.P.[N=C(N)NCCCC[C@H](N[*:1])C(=O)[*:2]].C.P.Y.V.E.G.C.A.[am]}|CHEM1{[O=C(CC[*:1])N1CN(C(=O)CC[*:2])CN(C(=O)CC[*:3])C1]}$PEPTIDE1,CHEM1,2:R3-1:R1|PEPTIDE1,CHEM1,7:R3-1:R2|PEPTIDE1,CHEM1,13:R3-1:R3$$$V2.0)	209
CC(C)[C@@H]1NC(=O)[C@H](Cc2c[nH]cn2)NC(=O)[C@@H]2CCCN2C(=O)[C@@H]2CSCCC(=O)N3CN(CN(C3)C(=O)CCSC[C@H](NC(=O)[C@H](C)N)C(=O)N[C@@H](CO)C(=O)N[C@@H](Cc3ccccc3)C(=O)N3CCC[C@H]3C(=O)N[C@@H](CCCCNC(=N)N)C(=O)N2)C(=O)CCSC[C@@H](C(=O)N[C@@H](C)C(N)=O)NC(=O)CNC(=O)[C@H](CCC(=O)O)NC1=O [Peptide 44] (HELM PEPTIDE1{A.C.S.F.P.[N=C(N)NCCCC[C@H](N[*:1])C(=O)[*:2]].C.P.H.V.E.G.C.A.[am]}|CHEM1{[O=C(CC[*:1])N1CN(C(=O)CC[*:2])CN(C(=O)CC[*:3])C1]}$PEPTIDE1,CHEM1,2:R3-1:R1|PEPTIDE1,CHEM1,7:R3-1:R2|PEPTIDE1,CHEM1,13:R3-1:R3$$$V2.0)	> 5000
CC[C@H](C)[C@@H]1NC(=O)[C@H](Cc2c[nH]c3ccccc23)NC(=O)[C@@H]2CCCN2C(=O)[C@@H]2CSCCC(=O)N3CN(CN(C3)C(=O)CCSC[C@H](NC(=O)[C@H](C)N)C(=O)N[C@@H](CO)C(=O)N[C@@H](Cc3ccccc3)C(=O)N3CCC[C@H]3C(=O)N[C@@H](CCCCNC(=N)N)C(=O)N2)C(=O)CCSC[C@@H](C(=O)N[C@@H](C)C(N)=O)NC(=O)CNC(=O)[C@H](CCC(=O)O)NC1=O [Peptide 45] (HELM PEPTIDE1{A.C.S.F.P.[N=C(N)NCCCC[C@H](N[*:1])C(=O)[*:2]].C.P.W.I.E.G.C.A.[am]}|CHEM1{[O=C(CC[*:1])N1CN(C(=O)CC[*:2])CN(C(=O)CC[*:3])C1]}$PEPTIDE1,CHEM1,2:R3-1:R1|PEPTIDE1,CHEM1,7:R3-1:R2|PEPTIDE1,CHEM1,13:R3-1:R3$$$V2.0)	< 9
C[C@H](N)C(=O)N[C@H]1CSCCC(=O)N2CN3CN(C2)C(=O)CCSC[C@H](NC(=O)[C@H](CCCCNC(=N)N)NC(=O)[C@@H]2CCCN2C(=O)[C@H](Cc2ccccc2)NC(=O)[C@H](CO)NC1=O)C(=O)N1CCC[C@H]1C(=O)N[C@@H](Cc1c[nH]c2ccccc12)C(=O)N[C@@H]([C@@H](C)O)C(=O)N[C@@H](CCC(=O)O)C(=O)NCC(=O)N[C@H](C(=O)N[C@@H](C)C(N)=O)CSCCC3=O [Peptide 46] (HELM PEPTIDE1{A.C.S.F.P.[N=C(N)NCCCC[C@H](N[*:1])C(=O)[*:2]].C.P.W.T.E.G.C.A.[am]}|CHEM1{[O=C(CC[*:1])N1CN(C(=O)CC[*:2])CN(C(=O)CC[*:3])C1]}$PEPTIDE1,CHEM1,2:R3-1:R1|PEPTIDE1,CHEM1,7:R3-1:R2|PEPTIDE1,CHEM1,13:R3-1:R3$$$V2.0)	15.5
CC(C)[C@@H]1NC(=O)[C@H](Cc2c[nH]c3ccccc23)NC(=O)[C@@H]2CCCN2C(=O)[C@@H]2CSCCC(=O)N3CN(CN(C3)C(=O)CCSC[C@H](NC(=O)[C@H](C)N)C(=O)N[C@@H](CO)C(=O)N[C@@H](Cc3ccccc3)C(=O)N3CCC[C@H]3C(=O)N[C@@H](CCCCNC(=N)N)C(=O)N2)C(=O)CCSC[C@@H](C(=O)N[C@@H](C)C(N)=O)NC(=O)CNC(=O)[C@@H]2CCCN2C1=O [Peptide 47] (HELM PEPTIDE1{A.C.S.F.P.[N=C(N)NCCCC[C@H](N[*:1])C(=O)[*:2]].C.P.W.V.P.G.C.A.[am]}|CHEM1{[O=C(CC[*:1])N1CN(C(=O)CC[*:2])CN(C(=O)CC[*:3])C1]}$PEPTIDE1,CHEM1,2:R3-1:R1|PEPTIDE1,CHEM1,7:R3-1:R2|PEPTIDE1,CHEM1,13:R3-1:R3$$$V2.0)	18
CC(C)C[C@@H]1NC(=O)[C@H](C(C)C)NC(=O)[C@H](Cc2c[nH]c3ccccc23)NC(=O)[C@@H]2CCCN2C(=O)[C@@H]2CSCCC(=O)N3CN(CN(C3)C(=O)CCSC[C@H](NC(=O)[C@H](C)N)C(=O)N[C@@H](CO)C(=O)N[C@@H](Cc3ccccc3)C(=O)N3CCC[C@H]3C(=O)N[C@@H](CCCCNC(=N)N)C(=O)N2)C(=O)CCSC[C@@H](C(=O)N[C@@H](C)C(N)=O)NC(=O)CNC1=O [Peptide 48] (HELM PEPTIDE1{A.C.S.F.P.[N=C(N)NCCCC[C@H](N[*:1])C(=O)[*:2]].C.P.W.V.L.G.C.A.[am]}|CHEM1{[O=C(CC[*:1])N1CN(C(=O)CC[*:2])CN(C(=O)CC[*:3])C1]}$PEPTIDE1,CHEM1,2:R3-1:R1|PEPTIDE1,CHEM1,7:R3-1:R2|PEPTIDE1,CHEM1,13:R3-1:R3$$$V2.0)	49.7
CC(C)[C@@H]1NC(=O)[C@H](Cc2c[nH]c3ccccc23)NC(=O)[C@@H]2CCCN2C(=O)[C@@H]2CSCCC(=O)N3CN(CN(C3)C(=O)CCSC[C@@H](C(=O)N[C@@H](C)C(N)=O)NC(=O)[C@H](CC(N)=O)NC(=O)[C@H](CCC(=O)O)NC1=O)C(=O)CCSC[C@H](NC(=O)[C@H](C)N)C(=O)N[C@@H](CO)C(=O)N[C@@H](Cc1ccccc1)C(=O)N1CCC[C@H]1C(=O)N[C@@H](CCCCNC(=N)N)C(=O)N2 [Peptide 52] (HELM PEPTIDE1{A.C.S.F.P.[N=C(N)NCCCC[C@H](N[*:1])C(=O)[*:2]].C.P.W.V.E.N.C.A.[am]}|CHEM1{[O=C(CC[*:1])N1CN(C(=O)CC[*:2])CN(C(=O)CC[*:3])C1]}$PEPTIDE1,CHEM1,2:R3-1:R1|PEPTIDE1,CHEM1,7:R3-1:R2|PEPTIDE1,CHEM1,13:R3-1:R3$$$V2.0)	< 9
CC(C)[C@@H]1NC(=O)[C@H](Cc2c[nH]c3ccccc23)NC(=O)[C@@H]2CCCN2C(=O)[C@@H]2CSCCC(=O)N3CN(CN(C3)C(=O)CCSC[C@@H](C(=O)N[C@@H](C)C(N)=O)NC(=O)[C@H](Cc3c[nH]cn3)NC(=O)[C@H](CCC(=O)O)NC1=O)C(=O)CCSC[C@H](NC(=O)[C@H](C)N)C(=O)N[C@@H](CO)C(=O)N[C@@H](Cc1ccccc1)C(=O)N1CCC[C@H]1C(=O)N[C@@H](CCCCNC(=N)N)C(=O)N2 [Peptide 53] (HELM PEPTIDE1{A.C.S.F.P.[N=C(N)NCCCC[C@H](N[*:1])C(=O)[*:2]].C.P.W.V.E.H.C.A.[am]}|CHEM1{[O=C(CC[*:1])N1CN(C(=O)CC[*:2])CN(C(=O)CC[*:3])C1]}$PEPTIDE1,CHEM1,2:R3-1:R1|PEPTIDE1,CHEM1,7:R3-1:R2|PEPTIDE1,CHEM1,13:R3-1:R3$$$V2.0)	< 9
